Results on 11 compounds are retold here after US4888283A, “Selective inhibitors of benzylaminoxidases with respect to other aminoxidases” (priority 1985, dated 1989).

What all share (assay type): biochemical
Assay [1] addresses T1, DAO from swine kidney (Sus scrofa, UniProt Q9TRC7).
T1 construct: DAO from swine kidney, as obtained and purified by the Sigma; purchased Sigma (St. Louis); host or cells: swine kidney
T1 sequence (Q9TRC7 25-755): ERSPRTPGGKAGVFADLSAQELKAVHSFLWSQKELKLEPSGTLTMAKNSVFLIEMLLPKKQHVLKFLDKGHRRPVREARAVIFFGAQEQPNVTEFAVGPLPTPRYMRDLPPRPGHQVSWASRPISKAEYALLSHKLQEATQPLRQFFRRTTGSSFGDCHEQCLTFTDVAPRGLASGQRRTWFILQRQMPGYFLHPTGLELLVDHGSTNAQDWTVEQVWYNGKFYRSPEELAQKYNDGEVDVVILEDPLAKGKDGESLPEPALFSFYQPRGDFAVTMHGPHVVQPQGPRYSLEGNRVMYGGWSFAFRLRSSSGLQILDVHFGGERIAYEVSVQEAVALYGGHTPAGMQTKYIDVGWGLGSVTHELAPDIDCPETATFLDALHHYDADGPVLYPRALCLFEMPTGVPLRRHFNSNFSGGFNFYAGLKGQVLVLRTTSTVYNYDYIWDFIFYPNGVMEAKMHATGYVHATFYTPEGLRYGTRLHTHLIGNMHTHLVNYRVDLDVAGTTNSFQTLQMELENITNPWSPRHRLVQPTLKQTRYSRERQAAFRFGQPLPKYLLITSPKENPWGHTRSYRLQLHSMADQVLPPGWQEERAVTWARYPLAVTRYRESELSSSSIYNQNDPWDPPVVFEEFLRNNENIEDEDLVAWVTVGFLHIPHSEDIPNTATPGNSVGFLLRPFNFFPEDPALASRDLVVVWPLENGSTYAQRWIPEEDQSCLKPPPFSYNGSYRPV
The experiment in a line: Compound as the substrate of DAO (production of H2O2). On the set-up: key: the compound is the substrate; ns: the compound is not the substrate. As to conditions: 37° C., air. The protocol:
(§1) The oxidation of the compound is estimated in all cases by measuring the production of H2 O2. Such operation is carried out within a temperature-controlled bath set at 37° C. and stirred, in the presence of air. The production-of H2 O2 is quantitatively determined by the method of H. P. Lehman, K. H. Schosinsky, M. F. Beeler (Clin. Chem., 20, 1564 (1974)).
(§2) Pure BAO obtained from swine plasma by the procedure disclosed by F. Buffoni and H. Blaschko (Proc. Roy. Soc. B 161, 153 (1964)); DAO from swine kidney, as obtained and purified by the Sigma (St. Louis, Md., USA, 0.25 U/mg); purified LAO from swine aorta obtained by the procedure disclosed by F. Buffoni and L. Raimondi (Agents and Actions, 11, 38 (1981)). Rat liver mitochondria obtained by the procedure disclosed by G. W. Schneider and G. H. Hogeboon (J. Biol. Chem., 183, 123 (1950)) were employed as the source of MAO.

In assay [2] the test system is MAO (rat liver mitochondria). The experiment in a line: Inhibition of monoaminoxidases (MAO), isotopic procedure with 14C-beta-phenylethylamine. Conditions: 30 minutes pre-incubation; 14C-beta-phenylethylamine 1.7 mM; mean ± s.e. As for the experimental part:
The quantitative determination of monoaminoxidases (MAO's) is carried out by the same procedure as the determination of BAO's, but ^14 C-beta-phenylethylamine is employed at the final concentration of 1.7 mM.
as §2
(§3) IC50 (M)=The molar concentration of the inhibitor that inhibits 50% of the enzyme activity at a saturating concentration of the substrate. Said concentration is calculated from curves obtained by pre-incubation of the compound for 30 minutes (at 6 different concentrations) with the enzyme before adding the substrate and determining the enzymic rate.
(§4) The repetition of the experiments allows to obtain the average values of the IC50 (M) as well as the relative standard errors.

For assay [3], the target named is Pure BAO obtained from swine plasma. Briefly: Inhibition of benzylaminoxidase (BAO), isotopic procedure with 14C-benzylamine. Conditions: for IC50: 30 minutes pre-incubation, 14C-benzylamine 1,7 mM (saturating), mean ± s.e.; for Activity as inhibitors of BAO (in words): compounds already known in the literature, prepared again. The protocol:
The quantitative determination of benzylaminoxidases (BAO's) is carried out by the isotopic procedure disclosed by F. Buffoni and G. Ignesti (Biochem. J.; 145, 369 (1975)) employing ^14 C-benzylamine as the substrate at the final concentration of 1,7 mM.
as §2, §3, §4

The subject of assay [4] is Pure BAO obtained from swine plasma. The experiment in a line: Compound as the substrate of BAO (production of H2O2). On the set-up: key: the compound is the substrate; ns: the compound is not the substrate. As to conditions: 37° C., air. The protocol:
as §1, §2

Assay [5] deals with MAO (rat liver mitochondria). Briefly: Compound as the substrate of MAO (production of H2O2). As to conditions: 37° C., air. On the set-up: key: the compound is the substrate; ns: the compound is not the substrate. The protocol: as §1, §2
Assay [6] concerns Pure BAO obtained from swine plasma. Briefly: Reversibility of BAO inhibition by dialysis. On the set-up: key: reversible inhibition; irreversible inhibition; pr: partially reversible inhibition. As to conditions: dialysis of the solution.
Source text: as §2
The reversibility of the effect was evaluated showing that the inhibition caused by a certain concentration of the inhibitor (for instance the IC50 value) would be reverted by dialysis of the solution.

The test system is the same in assay [7]. The experiment in a line: Inhibition type on BAO (Lineweaver-Burk). Conditions: 1/v vs. 1/s, 5 substrate concentrations. On the set-up: key: competitive inhibition; nc: not competitive inhibition; mixed inhibition.
Source text: as §2
The inhibition type was evaluated by studying the effect of the compound on the enzymic rate (v) at 5 different concentrations of the substrate (s) and plotting the results by the classical procedure as 1/v vs. 1/s according to Lineweaver-Burk.

In assay [8] the target is T1, DAO from swine kidney. Briefly: Inhibition of diaminoxidase (DAO), isotopic method with 14C-putrescine. Conditions: 30 minutes pre-incubation; 14C-putrescine 1 mM; mean ± s.e. The protocol: The quantitative determination of the diaminoxidases (DAO's) is performed by the isotopic method disclosed by J. Kusche, H. Richter, R. Hesterberg, J. Schmidt, W. Lorenz, (Agents and Actions, 3, 148-156 (1973)) employing ^14 C-putrescine as the substrate at the final concentration of 1 mM.
as §2, §3, §4

Counter-ions that a name gives are not always drawn.

Turning to `CC(C)Oc1cccc(OC(C)C)c1CN.Cl` [Example 3, 2,6-diisopropoxybenzylamine hydrochloride], the “DAO: compound as the substrate” value at DAO from swine kidney [1] is “s weak”. For the same compound, the IC50 in assay [2] and in assay [3] was over 1000 µM in each case. For the same compound, the “BAO: compound as the substrate” value in assay [4] is reported as “s weak”. Besides, the “MAO: compound as the substrate” value in assay [5] is “s weak”.
As for `CCCOc1cccc(OCCC)c1CN.Cl` [Example 2, 2,6-di(n-propoxy)benzylamine hydrochloride], the “BAO: reversibility of the inhibition” value in assay [6] is on record as “pr”. The “DAO: compound as the substrate” value at DAO from swine kidney [1] is recorded as “s weak”. The “BAO: inhibition type” value in assay [7] is on record as “m”. In assay [2], this compound gave a 50% inhibitory concentration (IC50) of over 1000 µM. Besides, in assay [4], the “BAO: compound as the substrate” value was “ns”. Further, the “MAO: compound as the substrate” value in assay [5] was “s”.
Turning to `NCc1c(O)cccc1O` [Example 8, 2,6-dihydroxybenzylamine hydrochloride], the IC50 in assay [2] was over 1000 µM; in assay [3], 1000 µM.
As for `Cl.NCc1ccccc1O` [Example 5, 2-hydroxybenzylamine hydrochloride], the “DAO: compound as the substrate” value at DAO from swine kidney [1] is listed as “s”. The IC50 on DAO from swine kidney [8] is 1000 µM; in assay [2], over 1000 µM; in assay [3] it was 1000 µM. For the same compound, the “Activity as inhibitors of BAO (in words)” value in assay [3] is “active indeed, though at a low degree”. Moreover, the “BAO: compound as the substrate” value in assay [4] was “s”. Also, the “MAO: compound as the substrate” value in assay [5] is recorded as “ns”.
In the case of `Cl.NCc1c(OCCO)cccc1OCCO` [Example 13, 2,6-bis(hydroxyethoxy)benzylamine hydrochloride], the “BAO: reversibility of the inhibition” value in assay [6] was “pr”. Besides, the “DAO: compound as the substrate” value on DAO from swine kidney [1] was “s”. Besides, the “BAO: inhibition type” value in assay [7] was “m”. Also, the IC50 in assay [2] was over 1000 µM; in assay [3], 2.6 µM. Further, the “BAO: compound as the substrate” value in assay [4] is given as “ns”. Besides, in assay [5], the “MAO: compound as the substrate” value is “ns”.
On to `COCc1cccc(COC)c1CN.Cl` [Example 10, 2,6-bis(methoxymethyl)benzylamine hydrochloride], for which the “BAO: reversibility of the inhibition” value in assay [6] is “pr”. Also, the “DAO: compound as the substrate” value at DAO from swine kidney [1] is “s”. Also, in assay [7], the “BAO: inhibition type” value is “m”. This compound also yielded an IC50 in assay [2] of over 1000 µM. For the same compound, in assay [4], the “BAO: compound as the substrate” value is on record as “ns”. Besides, the “MAO: compound as the substrate” value in assay [5] was “ns”.
On to `CCOc1cccc(OCC)c1CN.Cl` [Example 1, 2,6-diethoxybenzylamine hydrochloride], for which, in assay [6], the “BAO: reversibility of the inhibition” value was “pr”. Moreover, the “DAO: compound as the substrate” value on DAO from swine kidney [1] is “s”. The results for the IC50 (against DAO from swine kidney [8]; in assay [2]; in assay [3]) were 12500 ± 1 µM, 6400 ± 0.5 µM and 0.18 µM, respectively. The “BAO: inhibition type” value in assay [7] was “m”. The “BAO: compound as the substrate” value in assay [4] is listed as “ns”. Also, in assay [5], the “MAO: compound as the substrate” value is “ns”.
For `CCc1cccc(CC)c1CN.Cl` [Example 11, 2,6-diethylbenzylamine hydrochloride], in assay [6], the “BAO: reversibility of the inhibition” value is “r”. Moreover, at DAO from swine kidney [1], the “DAO: compound as the substrate” value is “s”. In addition, the “BAO: inhibition type” value in assay [7] is “nc”. This compound also gave an IC50 in assay [2] of over 1000 µM. In assay [4], the “BAO: compound as the substrate” value is given as “ns”. In addition, the “MAO: compound as the substrate” value in assay [5] was “s”.
In the case of `COc1cccc(OC)c1CN.Cl` [Example 7, 2,6-di-methoxybenzylamine hydrochloride], in assay [6], the “BAO: reversibility of the inhibition” value is recorded as “r”. In addition, the “DAO: compound as the substrate” value at DAO from swine kidney [1] is “s”. Also, the IC50 at DAO from swine kidney [8] is 5600 ± 0.3 µM; in assay [2], 190 µM; in assay [3], 120 µM. Also, the “BAO: inhibition type” value in assay [7] was “m”. Moreover, the “Activity as inhibitors of BAO (in words)” value in assay [3] was “active indeed, though at a low degree”. In addition, the “BAO: compound as the substrate” value in assay [4] was “ns”. In addition, the “MAO: compound as the substrate” value in assay [5] is reported as “s weak”.
As to `CCCCOc1cccc(OCCCC)c1CN.Cl` [Example 4, 2,6-di(n-butoxy)benzylamine hydrochloride], the “BAO: reversibility of the inhibition” value in assay [6] is given as “pr”. Besides, at DAO from swine kidney [1], the “DAO: compound as the substrate” value was “s”. For the same compound, the “BAO: inhibition type” value in assay [7] is “nc”. The IC50 was over 1000 µM in assay [2] and 0.14 µM in assay [3]. For the same compound, the “BAO: compound as the substrate” value in assay [4] was “ns”. The “MAO: compound as the substrate” value in assay [5] was “ns”.
As to `Cl.NCc1ccccc1CO` [Example 6, 2-hydroxymethylbenzylamine hydrochloride], the “DAO: compound as the substrate” value at DAO from swine kidney [1] was “s”. Besides, the IC50 in assay [2] is over 1000 µM. In addition, in assay [3], the IC50 is 1000 µM and the “Activity as inhibitors of BAO (in words)” value is given as “active indeed, though at a low degree”. Besides, the “BAO: compound as the substrate” value in assay [4] is recorded as “s”. The “MAO: compound as the substrate” value in assay [5] was “ns”.
